Laboratory results published in PubChem BioAssay AID1918954 (Molecular Pharmacology Branch, DTP, NCI, 2023).

Test system: MDA-MB-468 complex spheroids with HUVEC/MSC, viability
Test: Anticancer human tumor MDA-MB-468 cell line growth inhibition;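 further: spheroids exposed to agents for seven days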;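 on viability, T/C: 100% = DMSO vehicle control viability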
Settings: for IC50: curve of first compound; for viability, T/C: stronger effect = lower value; active means viability on the fitted dose curve at most 10% of control; inactive means the rest
Outline: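 Drug combinations with the LSD1 inhibitor iadademstat tested on tumor cells co-cultured as spheroids with endothelial cells and mesenchymal stem cells. Concentrations descended in half-log increments from clinical Cmax or 10 microM.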

[1] = second compound 0.1 µM, first compound 0.0316 µM
[2] = second compound 0.1 µM, first compound 0.1 µM
[3] = second compound 0.1 µM, first compound 0.316 µM
[4] = second compound 0.1 µM, first compound 1 µM
[5] = second compound 0.1 µM, first compound 3.16 µM
[6] = second compound 0.1 µM, first compound 10 µM
[7] = second compound 0.316 µM, first compound 0.0316 µM
[8] = second compound 0.316 µM, first compound 0.1 µM
[9] = second compound 0.316 µM, first compound 0.316 µM
[10] = second compound 0.316 µM, first compound 1 µM
[11] = second compound 0.316 µM, first compound 3.16 µM
[12] = second compound 0.316 µM, first compound 10 µM
[13] = second compound 1 µM, first compound 0.0316 µM
[14] = second compound 1 µM, first compound 0.1 µM
[15] = second compound 1 µM, first compound 0.316 µM
[16] = second compound 1 µM, first compound 1 µM
[17] = second compound 1 µM, first compound 3.16 µM
[18] = second compound 1 µM, first compound 10 µM
[19] = second compound 3.16 µM, first compound 0.0316 µM
[20] = second compound 3.16 µM, first compound 0.1 µM
[21] = second compound 3.16 µM, first compound 0.316 µM
[22] = second compound 3.16 µM, first compound 1 µM
[23] = second compound 3.16 µM, first compound 3.16 µM
[24] = second compound 3.16 µM, first compound 10 µM
[25] = second compound 10 µM, first compound 0.0316 µM
[26] = second compound 10 µM, first compound 0.1 µM
[27] = second compound 10 µM, first compound 0.316 µM
[28] = second compound 10 µM, first compound 1 µM
[29] = second compound 10 µM, first compound 3.16 µM
[30] = second compound 10 µM, first compound 10 µM
[31] = second compound 0.1 µM, first compound 0.00949 µM
[32] = second compound 0.1 µM, first compound 0.03 µM
[33] = second compound 0.1 µM, first compound 0.0949 µM
[34] = second compound 0.1 µM, first compound 0.3 µM
[35] = second compound 0.316 µM, first compound 0.00949 µM
[36] = second compound 0.316 µM, first compound 0.03 µM
[37] = second compound 0.316 µM, first compound 0.0949 µM
[38] = second compound 0.316 µM, first compound 0.3 µM
[39] = second compound 1 µM, first compound 0.00949 µM
[40] = second compound 1 µM, first compound 0.03 µM
[41] = second compound 1 µM, first compound 0.0949 µM
[42] = second compound 1 µM, first compound 0.3 µM
[43] = second compound 3.16 µM, first compound 0.00949 µM
[44] = second compound 3.16 µM, first compound 0.03 µM
[45] = second compound 3.16 µM, first compound 0.0949 µM
[46] = second compound 3.16 µM, first compound 0.3 µM
[47] = second compound 10 µM, first compound 0.00949 µM
[48] = second compound 10 µM, first compound 0.03 µM
[49] = second compound 10 µM, first compound 0.0949 µM
[50] = second compound 10 µM, first compound 0.3 µM

CC1(C)CCC(CN2CCN(c3ccc(C(=O)NS(=O)(=O)c4ccc(NCC5CCOCC5)c([N+](=O)[O-])c4)c(Oc4cnc5[nH]ccc5c4)c3)CC2)=C(c2ccc(Cl)cc2)C1 + NC1CCC(NC2CC2c2ccccc2)CC1
3810 nM: IC50 (second compound 1 µM)
5700 nM: IC50 (second compound 0.316 µM)
5550 nM: IC50 (second compound 0.1 µM)
inactive: viability, T/C [1] 92.8% | viability, T/C [2] 87% | viability, T/C [3] 103% | viability, T/C [4] 98.6% | viability, T/C [5] 70% | viability, T/C [6] 29.1% | viability, T/C [7] 99.8% | viability, T/C [8] 119% | viability, T/C [9] 128% | viability, T/C [10] 87.6% | viability, T/C [11] 78% | viability, T/C [12] 26.4% | viability, T/C [13] 73.9% | viability, T/C [14] 113% | viability, T/C [15] 94.8% | viability, T/C [16] 79.1% | viability, T/C [17] 54% | viability, T/C [18] 34.8% | viability, T/C [19] 87.9% | viability, T/C [20] 95.5% | viability, T/C [21] 78.1% | viability, T/C [22] 76.6% | viability, T/C [23] 61.2% | viability, T/C [24] 27.2% | viability, T/C [25] 71.2% | viability, T/C [26] 68.7% | viability, T/C [27] 67.1% | viability, T/C [28] 65.3% | viability, T/C [29] 58.1% | viability, T/C [30] 27.8%
4460 nM: IC50 (second compound 3.16 µM)
4240 nM: IC50 (second compound 10 µM)

CC1COCCN1c1cc(C2(S(C)(=N)=O)CC2)nc(-c2ccnc3[nH]ccc23)n1 (stereo not given) + NC1CCC(NC2CC2c2ccccc2)CC1
394 nM: IC50 (second compound 3.16 µM)
330 nM: IC50 (second compound 0.1 µM)
450 nM: IC50 (second compound 0.316 µM)
326 nM: IC50 (second compound 1 µM)
221 nM: IC50 (second compound 10 µM)
active: viability, T/C [30] 8.95%
inactive: viability, T/C [1] 103% | viability, T/C [2] 73.1% | viability, T/C [3] 49.5% | viability, T/C [4] 34.9% | viability, T/C [5] 21.3% | viability, T/C [6] 10.2% | viability, T/C [7] 76.9% | viability, T/C [8] 72.2% | viability, T/C [9] 55.8% | viability, T/C [10] 35.1% | viability, T/C [11] 21.2% | viability, T/C [12] 10.6% | viability, T/C [13] 74.1% | viability, T/C [14] 71% | viability, T/C [15] 45.4% | viability, T/C [16] 34.4% | viability, T/C [17] 25.8% | viability, T/C [18] 11.3% | viability, T/C [19] 75.5% | viability, T/C [20] 74.6% | viability, T/C [21] 48.9% | viability, T/C [22] 36.7% | viability, T/C [23] 21.2% | viability, T/C [24] 12.4% | viability, T/C [25] 63.9% | viability, T/C [26] 54.7% | viability, T/C [27] 48.2% | viability, T/C [28] 35.2% | viability, T/C [29] 21.1%

CCN(c1cc(-c2ccc(CN3CCOCC3)cc2)cc(C(=O)NCc2c(C)cc(C)[nH]c2=O)c1C)C1CCOCC1 + NC1CCC(NC2CC2c2ccccc2)CC1
> 3000 nM: IC50 (second compound 0.1 µM) | IC50 (second compound 0.316 µM) | IC50 (second compound 1 µM) | IC50 (second compound 3.16 µM) | IC50 (second compound 10 µM)
inactive: viability, T/C [31] 107% | viability, T/C [32] 96% | viability, T/C [33] 100% | viability, T/C [34] 88.1% | viability, T/C (second compound 0.1 µM, first compound 0.949 µM) 85.5% | viability, T/C (second compound 0.1 µM, first compound 3 µM) 83% | viability, T/C [35] 99.7% | viability, T/C [36] 102% | viability, T/C [37] 96.7% | viability, T/C [38] 102% | viability, T/C (second compound 0.316 µM, first compound 0.949 µM) 88.6% | viability, T/C (second compound 0.316 µM, first compound 3 µM) 91.9% | viability, T/C [39] 87% | viability, T/C [40] 92.3% | viability, T/C [41] 95.7% | viability, T/C [42] 87.4% | viability, T/C (second compound 1 µM, first compound 0.949 µM) 86% | viability, T/C (second compound 1 µM, first compound 3 µM) 74.9% | viability, T/C [43] 86.3% | viability, T/C [44] 76.8% | viability, T/C [45] 97.8% | viability, T/C [46] 99.9% | viability, T/C (second compound 3.16 µM, first compound 0.949 µM) 77.4% | viability, T/C (second compound 3.16 µM, first compound 3 µM) 88.5% | viability, T/C [47] 67.2% | viability, T/C [48] 72.2% | viability, T/C [49] 66.8% | viability, T/C [50] 74.5% | viability, T/C (second compound 10 µM, first compound 0.949 µM) 75.8% | viability, T/C (second compound 10 µM, first compound 3 µM) 63.4%

Nc1ncn(C2CC(O)C(CO)S2)c(=O)n1 (stereo not given) + NC1CCC(NC2CC2c2ccccc2)CC1
inactive: viability, T/C (second compound 0.1 µM, first compound 0.000949 µM) 90.8% | viability, T/C (second compound 0.1 µM, first compound 0.003 µM) 95.7% | viability, T/C [31] 76.8% | viability, T/C [32] 59.6% | viability, T/C [33] 54.5% | viability, T/C [34] 35% | viability, T/C (second compound 0.316 µM, first compound 0.000949 µM) 89.7% | viability, T/C (second compound 0.316 µM, first compound 0.003 µM) 80% | viability, T/C [35] 72.8% | viability, T/C [36] 71.3% | viability, T/C [37] 45.6% | viability, T/C [38] 29.8% | viability, T/C (second compound 1 µM, first compound 0.000949 µM) 76.5% | viability, T/C (second compound 1 µM, first compound 0.003 µM) 87.8% | viability, T/C [39] 76.1% | viability, T/C [40] 64.1% | viability, T/C [41] 48.5% | viability, T/C [42] 38.1% | viability, T/C (second compound 3.16 µM, first compound 0.000949 µM) 81.2% | viability, T/C (second compound 3.16 µM, first compound 0.003 µM) 68.3% | viability, T/C [43] 76% | viability, T/C [44] 67.5% | viability, T/C [45] 41.8% | viability, T/C [46] 33.7% | viability, T/C (second compound 10 µM, first compound 0.000949 µM) 64.6% | viability, T/C (second compound 10 µM, first compound 0.003 µM) 53% | viability, T/C [47] 54.5% | viability, T/C [48] 43% | viability, T/C [49] 40% | viability, T/C [50] 31.1%
11.6 nM: IC50 (second compound 10 µM)
65.7 nM: IC50 (second compound 3.16 µM)
80.4 nM: IC50 (second compound 1 µM)
90.5 nM: IC50 (second compound 0.316 µM)
88.3 nM: IC50 (second compound 0.1 µM)

O=C(C=Cn1cnc(-c2cc(C(F)(F)F)cc(C(F)(F)F)c2)n1)NNc1cnccn1 + NC1CCC(NC2CC2c2ccccc2)CC1
< 3.16 nM: IC50 (second compound 0.1 µM) | IC50 (second compound 0.316 µM) | IC50 (second compound 1 µM) | IC50 (second compound 3.16 µM) | IC50 (second compound 10 µM)
active: viability, T/C [2] 3.32% | viability, T/C [3] 2.51% | viability, T/C [4] 1.85% | viability, T/C [8] 2.83% | viability, T/C [9] 7.44% | viability, T/C [10] 2.14% | viability, T/C [14] 3.06% | viability, T/C [15] 2.61% | viability, T/C [16] 6.02% | viability, T/C [20] 3.59% | viability, T/C [21] 6.05% | viability, T/C [22] 5.81% | viability, T/C [26] 4.27% | viability, T/C [27] 8.47% | viability, T/C [28] 2.53%
inactive: viability, T/C (second compound 0.1 µM, first compound 0.00316 µM) 45.1% | viability, T/C (second compound 0.1 µM, first compound 0.01 µM) 29.7% | viability, T/C [1] 11.8% | viability, T/C (second compound 0.316 µM, first compound 0.00316 µM) 38.9% | viability, T/C (second compound 0.316 µM, first compound 0.01 µM) 26.9% | viability, T/C [7] 9.03% | viability, T/C (second compound 1 µM, first compound 0.00316 µM) 37.4% | viability, T/C (second compound 1 µM, first compound 0.01 µM) 32% | viability, T/C [13] 10.6% | viability, T/C (second compound 3.16 µM, first compound 0.00316 µM) 38.8% | viability, T/C (second compound 3.16 µM, first compound 0.01 µM) 31% | viability, T/C [19] 12.4% | viability, T/C (second compound 10 µM, first compound 0.00316 µM) 35.4% | viability, T/C (second compound 10 µM, first compound 0.01 µM) 30.1% | viability, T/C [25] 12.3%
